Reference: publication PMC3462190, “A Peptidic Unconjugated GRP78/BiP Ligand Modulates the Unfolded Protein Response and Induces Prostate Cancer Cell Death” (PLoS ONE, 2012)
Where no end group is shown, it is not given here.

System: 22Rv.1 cells
Assay: Clonogenic assay
Format: cell-based
Conditions: neomycin selection, colonies quantified; mean ± SEM of at least three independent experiments
Source text: Figure 5 An N-terminal unfolded fragment of the Bag-1 peptide is sufficient to reduce tumor cell growth. A. Schematic diagram of the Bag-1 peptide and its deletion mutants. The ubiquitin-like domain is represented in blue and the BAG domain in red. The numbers refer to the amino acid positions of the different domains. The amino acid residues are numbered following the numbering for Bag-1L. B. Prediction of the secondary structure of the Bag-1 peptide, showing an N-terminal β-hairpin from the ubiquitin-like domain (blue) and a C-terminal α-helix from the BAG domain (red). C. Normalized circular dichroism spectra of the Bag-1 peptides. 30 µM of the Bag-1 peptide were measured in 20 mM KHPO4 buffer, pH 6.8 (black line). Its α-helical content was estimated to be approximately 25% by deconvolution of the spectra (red line). 12 µM of the N-term peptide (green line) and 11 µM of C-term (blue line) were measured under the same conditions. D. ^1H^15N-HSQC NMR spectrum of ^15N-labeled Bag-1 peptide (202–269) in 20 mm KHPO4 buffer, pH 6.8, at 23°C. […] The Hδ and Hε side chain signals of asparagine and glutamine are connected by thin lines. E. The N-terminal region of the Bag-1 peptide is important for GRP78 binding. 400 µg of 22Rv.1 cell lysate were incubated with glutathione-agarose beads carrying 15 µg GST-N-term peptide (lane 2), GST-C-term peptide (lane 3), GST-ΔUbi peptide (lane 4), GST-Bag-1(202–269) peptide (lane 5) and GST (lane 6). The beads were washed and the bound proteins were separated by 10% SDS-PAGE and subjected to Western blotting using antibodies directed against GRP78 or GST. […] F. Clonogenic assay of the Bag-1 peptides expressed in 22Rv.1 cells. Cells transfected with the indicated constructs were selected in medium containing neomycin and the colonies formed were quantified. Shown are the mean value ±SEM of at least three independent experiments using three different plasmid preparations (*p<0.05). […] Six-week old athymic nude mice were injected subcutaneously on both flanks with 5×10^6 cells of each stable clone. Tumor size was measured once per week using a caliper and expressed as tumor volume in mm^3. Shown are the tumor volumes of clones transfected with the N-terminal peptide (G), the C-terminal peptide (H) and the ΔUbi peptide (I). Each point represents the mean volume and standard deviation of at least 5 to 10 tumors.
Figure 6 Selectivity of action of the Bag-1 peptide. A Amino acid sequence of the 19mer peptide and its deletion mutants. B GST pull-down assay performed incubating 400 µg of 22Rv.1 cell lysate and 25 µg of GST-fused deletion mutants of the 19mer peptide. After the pull-down experiment, Western blots were carried out with anti-GRP78/BiP and GST antibodies. C. Fluorescence polarization (FP) assays with a 10 nM FITC-labeled 7-mer Bag-1 peptide and dilutions of the GST-fused substrate binding domain of GRP78 in 60 µl of Tris-GSH buffer (50 mM Tris, 10 mM reduced glutathione and 0.1% BSA, pH 8.0). Triplicate samples were measured after 5 h of incubation at room temperature with an Infinite F-200 reader (Tecan) with excitation at 490 nm and emission at 535 nm. Binding constants were determined from three independent experiments using non-linear regression in Sigma Plot 10.0. D. Competition assays with a complex of 10 nM of FITC-labeled Bag-1 7-mer peptide and 0.75 mg/ml GST-fused GRP78 substrate binding domain was measured against a dilution series from 100 µM to 0.1 nM of wild-type Bag-1 7-mer peptide (filled line) or triple mutant peptide (dotted line) in 40 µl of Tris-GSH buffer. FITC-peptide and the FITC-peptide-protein complex were used as controls. Fluorescence polarization was determined as described above and IC50 values were determined in Sigma Plot. […]

Row | Molecule | 22Rv.1 growth in clonogenic assay
1 | ΔUbi peptide: Bag-1 peptide lacking the ubiquitin-like domain portion (Bag-1L 220–269) (KKNSPQEEVELKKLKHLEKSVEKIADQLEELNKELTGIQQGFLPKDLQAE; not fully specified) | ineffective
2 | C-terminal peptide: 28 C-terminal fragment of the Bag-1 peptide (Bag-1L 241–269) (EKIADQLEELNKELTGIQQGFLPKDLQAE; not fully specified) | ineffective
3 | 19-mer: Bag-1L 202–220 (TPLSALGIQDGCRVMLIGK; not fully specified) | inhibit 22Rv.1 cell growth
4 | N-terminal peptide: N-terminal 40 residues of the Bag-1 peptide (Bag-1L 202–241) (TPLSALGIQDGCRVMLIGKKNSPQEEVELKKLKHLEKSVE; not fully specified) | inhibited growth of the 22Rv.1 cells
5 | Bag-1 peptide: internal sequence of 68 amino acids of Bag-1 (Bag1-L 202–269), HA-tagged, expressed from pcDNA3 (also: HA tag, end not given here) TPLSALGIQDGCRVMLIGKKNSPQEEVELKKLKHLEKSVEKIADQLEELNKELTGIQQGFLPKDLQAE | inhibited growth of the 22Rv.1 cells
